Data published in US7329685B2, “1-Phenyl-2-oxo-3-sulfonylamino-pyrrolidine derivatives and related compounds as factor Xa inhibitors for the treatment of acute vascular diseases” (Glaxo Group Limited, priority 2003, dated 2008).
Structures can show the parent of a compound that is named as a salt.

The compounds below were run against human Factor Xa (Homo sapiens, UniProt P00742) (assay: In vitro assay for inhibition of Factor Xa (fluorogenic assay, Rhodamine 110 bis-CBZ-glycylglycyl-L-arginine amide substrate)). Conditions: Ki = IC50/1.6, tiers 'more preferably' and 'most preferably'.
Chain of human Factor Xa (P00742 235-488 limits assumed): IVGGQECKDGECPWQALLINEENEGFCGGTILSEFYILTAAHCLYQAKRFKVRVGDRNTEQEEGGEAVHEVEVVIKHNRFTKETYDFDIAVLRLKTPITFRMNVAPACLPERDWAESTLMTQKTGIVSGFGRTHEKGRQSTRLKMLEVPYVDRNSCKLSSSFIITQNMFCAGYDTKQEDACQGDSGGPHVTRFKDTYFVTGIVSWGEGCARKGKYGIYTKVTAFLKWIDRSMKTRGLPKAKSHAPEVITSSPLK
Chain of human Factor Xa (P00742 41-179 partner limits assumed): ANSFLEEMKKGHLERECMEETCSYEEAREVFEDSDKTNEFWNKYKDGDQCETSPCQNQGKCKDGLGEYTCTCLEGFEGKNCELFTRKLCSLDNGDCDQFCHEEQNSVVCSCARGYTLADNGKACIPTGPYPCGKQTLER
Format: biochemical
Procedure: In Vitro Assay for Inhibition of Factor Xa
Compounds of the present invention were tested for their Factor Xa inhibitory activity as determined in vitro by their ability to Inhibit human Factor Xa in a fluorogenic assay, using Rhodamine 110, bis-CBZ-glycylglycyl-L-arginine amide as the fluorogenic substrate. Compounds were diluted from a 10 mM stock solution in dimethylsulfoxide at appropriate concentrations. Assay was performed at room temperature using buffer consisting of: 50 mM Tris-HCl, 150 mM NaCl, 5 mM CaCl2, pH 7.4. containing human Factor Xa (final conc. Of 0.0003U.ml-1). Compound and enzyme were preincubated for 15 min prior to addition of the substrate (final conc. of 10 μM). The reaction was stopped after 3 hrs with the addition of H-D-Phe-Pro-Arg-Chloromethylketone. An LJL-Analyst fluorimeter was used to monitor fluorescence with 485 nm excitation/535 nm emission. To obtain IC50 values the data were analysed using ActivityBase® and XLfit®.
Calculation of Ki values: Ki=IC50/(1+[Substrate]/Km)
The Ki value for the above assay can be obtained by dividing the IC50 value by 1.6.

Row | Compound | Ki [µM]
1 | C/C(=C\S(=O)(=O)N(CC1CC1)[C@H]1CCN(c2ccc(C(=O)N(C)C)cc2F)C1=O)c1ccc(Cl)s1 [Example 1, 4-{(3S)-3-[{[(1E)-2-(5-Chloro-2-thienyl)-1-propen-1-yl]sulfonyl}(cycloprotylmethyl)amino]-2-oxo-1-pyrrolidinyl}-3-fluoro-N,N-dimethylbenzamide] | < 0.01
2 | C/C(=C\S(=O)(=O)N(C(C)C)[C@H]1CCN(c2ccc(C(=O)N(C)C)cc2F)C1=O)c1ccc(Cl)s1 [Example 7, 4-{(3S)-3-[{[(1E)-2-(5-Chloro-2-thienyl)-1-propen-1-yl]sulfonyl}(1-methylethyl)amino]-2-oxo-1-pyrrolidinyl}-3-fluoro-N,N-dimethylbenzamide] | < 0.01
3 | C/C(=C\S(=O)(=O)N(Cc1nccn1C)[C@H]1CCN(c2ccc(C(=O)N(C)C)cc2F)C1=O)c1ccc(Cl)s1 [Example 6, 4-((3S)-3{{[(1E)-2-(5-Chloro-2-thienyl)-1-propen-1-yl]sulfonyl}[(1-methyl-1H-imidazol-2-yl)methyl]amino}-2-oxo-1-pyrrolidinyl)-3-fluoro-N,N-dimethylbenzamide] | < 0.01
4 | CN(C)C(=O)c1ccc(N2CC[C@H](N(C)S(=O)(=O)/C=C/c3ccc(Cl)s3)C2=O)c(F)c1 [Example 14, 4-{(3S)-3-[{[(E)-2-(5-chloro-2-thienyl)ethenyl]sulfonyl}(methyl)amino]-2-oxo-1-pyrrolidinyl}-3-fluoro-N,N-dimethylbenzamide] | < 0.01
5 | C/C(=C\S(=O)(=O)N(CCOCC(N)=O)[C@H]1CCN(c2ccc(C(=O)N(C)C)cc2F)C1=O)c1ccc(Cl)s1 [Example 4, 4-[(3S)-3-({2-[(2-Amino-2-oxoethyl)oxy]ethyl}{[(1E)-2-(5-chloro-2-thienyl)-1-propen-1-yl]sulfonyl}amino)-2-oxo-1-pyrrolidinyl]-3-fluoro-N,N-dimethylbenzamide] | < 0.01
6 | C/C(=C\S(=O)(=O)N(C1CCCC1)[C@H]1CCN(c2ccc(C(=O)N(C)C)cc2F)C1=O)c1ccc(Cl)s1 [Example 5, 4-{(3S)-3-[{[(1E)-2-(5-Chloro-2-thienyl)-1-propen-1-yl]sulfonyl}(cyclopentyl)amino]-2-oxo-1-pyrrolidinyl}-3-fluoro-N,N-dimethylbenzamide] | < 0.01
7 | C/C(=C\S(=O)(=O)N(CCOC(C)(C)C)[C@H]1CCN(c2ccc(C(=O)N(C)C)cc2F)C1=O)c1ccc(Cl)s1 [Example 11, 4-[(3S)-3-({[(1E)-2-(5-Chloro-2-thienyl)-1-propen-1-yl]sulfonyl}{2-[(1,1-dimethylethyl)oxy]ethyl}amino)-2-oxo-1-pyrrolidinyl]-3-fluoro-N,N-dimethylbenzamide] | < 0.01
8 | C/C(=C\S(=O)(=O)N(Cc1ccccn1)[C@H]1CCN(c2ccc(C(=O)N(C)C)cc2F)C1=O)c1ccc(Cl)s1 [Example 8, 4-{(3S)-3-[{[(1E)-2-(5-Chloro-2-thienyl)-1-propen-1-yl]sulfonyl}(2-pyridinylmethyl)amino]-2-oxo-1-pyrrolidinyl}-3-fluoro-N,N-dimethylbenzamide] | < 0.01
9 | C/C(=C\S(=O)(=O)N(CCCN(C)C)[C@H]1CCN(c2ccc(C(=O)N(C)C)cc2F)C1=O)c1ccc(Cl)s1 [Example 2, 4-((3S)-3-{{[(1E)-2-(5-Chloro-2-thienyl)-1-propen-1-yl]sulfonyl}[3-(dimethylamino)propyl]amino}-2-oxo-1-Pyrrolidinyl)-3-fluoro-N,N-dimethylbenzamide formate] | < 0.01
10 | C/C(=C\S(=O)(=O)N(Cc1c(C)noc1C)[C@H]1CCN(c2ccc(C(=O)N(C)C)cc2F)C1=O)c1ccc(Cl)s1 [Example 9, 4-((3S)-3-{{[(1E)-2-(5-Chloro-2-thienyl)-1-propen-1-yl]sulfonyl}[(3,5-dimethyl-4-isoxazolyl)methyl]amino}-2-oxo-1-pyrrolidinyl)-3-fluoro-N,N-dimethylbenzamide] | < 0.01
11 | C/C(=C\S(=O)(=O)N(Cc1nccnc1N)[C@H]1CCN(c2ccc(C(=O)N(C)C)cc2F)C1=O)c1ccc(Cl)s1 [Example 12, 4-[(3S)-3-([(3-Amino-2-pyrazinyl)methyl]{[(1E)-2-(5-chloro-2-thienyl)-1-propen-1-yl]sulfonyl}amino)-2-oxo-1-pyrrolidinyl]-3-fluoro-N,N-dimethylbenzamide] | < 0.01
12 | COCCN([C@H]1CCN(c2ccc(C(=O)N(C)C)cc2F)C1=O)S(=O)(=O)/C=C(\C)c1ccc(Cl)s1 [Example 10, 4-((3S)-3-{{[(1E)-2-(5-Chloro-2-thienyl)-1-propen-1-yl]sulfonyl}[2-(methyloxy)ethyl]amino}-2-oxo-1-pyrrolidinyl)-3-fluoro-N,N-dimethylbenzamide] | < 0.01
13 | C/C(=C\S(=O)(=O)N(C)[C@H]1CCN(c2ccc(C(=O)N(C)C)cc2F)C1=O)c1ccc(Cl)s1 [Example 13, 4-{(3S)-3-[{[(1E)-2-(5-Chloro-2-thienyl)-1-propen-1-yl]sulfonyl}(methyl)amino]-2-oxo-1-pyrrolidinyl}-3-fluoro-N,N-dimethylbenzamide] | < 0.01
